Results as given in patent US12655107B2 (The United States of America, as represented by the …, priority 2018, dated 2026).
Where two headings read alike, the source gives them in different places.

Legend:
HCT116 cells = experiment: Flow cytometry apoptosis assay; assay type: cell-based, human
Description: To evaluate the induction of apoptosis by 50, flow cytometry assays were performed in HCT116 cells.
The stained cells were analyzed by using flow cytometry (BD, FACSCalibur, USA) within I h. The experiments were repeated three times independently.

[1] = Pharmacokinetic study in rat; conditions: SD rats
Description: The SD rats were divided into two groups (n=3) and treated by intravenous injection (i.v.) at 1 mg/kg dose and intragastrical administration (i.g.) at 5 mg/kg dose, respectively.
A pharmacokinetic (PK) study in vivo of 50 was performed in Sprague-Dawley (SD) rats. The SD rats were randomly divided into two groups […] and treated by intravenous injection (iv) at 1 mg/kg dose or an intragastrical administration (ig) at 5 mg/kg dose, respectively. Plasma samples were collected postdosing and the concentration of 50 was measured.
Plasma samples (100 μL) were obtained after centrifugation for 10 min at 3000 rpm and stored at −20° C. until used for analysis. The plasma was detected through LC-MS-MS.

MCF-7 xenograft = experiment: In vivo antitumor activity, MCF-7 xenograft; set-up: species or system nude mice; tumor weight inhibitions (TWI): dose or concentration left out as unconfirmed
HCT116 xenograft = experiment: In vivo antitumor activity, HCT116 xenograft

CNCCn1c(=O)c2cc(OC)c(OC)cc2c2ccc3cc4c(cc3c21)OCO4 [Compound 50, 2,3-dimethoxy-12-(2-(methylamino)ethyl)-[1,3]dioxolo[4′5′:4,5]benzo[1,2-c]phenanthridin-13(12H)-one]
early apoptotic cells (HCT116 cells; HCT116, 24 h, 2 μM): 27.95% | induction of apoptosis (HCT116 cells; HCT116, 24 h, 0.5, 1 and 2 μM): clearly induced HCT116 cells apoptosis in a dose-dependent manner | AUC0→t ([1]; i.g. 5 mg/kg): 48.3 ± 28 ng·h/mL | Cmax ([1]; i.g. 5 mg/kg): 19 ± 9 ng/mL | Tmax ([1]; i.g. 5 mg/kg): 2 ± 0 h | F (%) ([1]; i.g. 5 mg/kg vs i.v. 1 mg/kg): 20.4% | AUC0→t ([1]; i.v. 1 mg/kg): 47.2 ± 1.8 ng·h/mL | AUC0→∞ ([1]; i.v. 1 mg/kg): 49.8 ± 1.5 ng·h/mL | MRTINF ([1]; i.v. 1 mg/kg): 1.46 ± 0.027 h | T1/2 ([1]; i.v. 1 mg/kg): 1.21 h | tumor weight inhibitions (TWI) (MCF-7 xenograft; MCF-7 model, ip daily): 71.8% | tumor volume (MCF-7 xenograft; MCF-7 xenograft, 5, 10, 20 mg/kg ip daily): significantly reduced the tumor volume in a dose-dependent manner | median lethal dose (LD50) (i.p., dose to kill half of mice after 7 days): 192 mg/kg | mouse survival (mouse, in vivo, ip, 192 mg/kg): three mice survived | mouse survival (single i.p. dose 122.9 mg/kg, 7 days): all mice survived | mouse survival (single i.p. dose 153.6 mg/kg, 7 days): four mice survived | mouse survival (single i.p. dose 240 mg/kg, 7 days): two mice survived | mouse survival (single i.p. dose 300 mg/kg, 7 days): All mice died within 5 days | tumor weight inhibitions (TWI) (HCT116 xenograft; HCT116 model, 20 μM dose (so in the source), ip daily): 76.9% | tumor volume (HCT116 xenograft; HCT116 xenograft, i.p. once every day): significantly reduced the tumor volume in a dose-dependent manner
